Data as given in ChEMBL document CHEMBL1148828, “Deoxycholic acid-derived tetraoxane antimalarials and antiproliferatives(1)” (J Med Chem, 2007).

Legend:
Plasmodium falciparum [1] = experiment: Antimalarial activity against Plasmodium falciparum W2; type: functional, organism-based
Plasmodium falciparum [2] = experiment: Antimalarial activity against Plasmodium falciparum D6; type: functional, organism-based
Plasmodium falciparum [3] = experiment: Antimalarial activity against Plasmodium falciparum TM91C235; type: functional, organism-based
NCI = experiment: Growth inhibition of human NCI DTP 60 cells; type: functional
LOX IMVI = experiment: Antiproliferative activity against human LOX IMVI cells after 48 hrs; type: functional
HOP-92 = experiment: Antiproliferative activity against human HOP92 cells after 48 hrs; type: functional; details: Homo sapiens, HOP-92, 48 h
[4] = Plasmodium falciparum, TM91C235

Compound	IC50 (Plasmodium falciparum [1]) [nM]	IC50 (Plasmodium falciparum [2]) [nM]	IC90 (Plasmodium falciparum [2]) [nM]	IC50 (Plasmodium falciparum [3]) [nM]	IC90 (Plasmodium falciparum [3]) [nM]	IC50 (Plasmodium falciparum [1]; Plasmodium falciparum, W2) [nM]	IC90 (Plasmodium falciparum [1]; Plasmodium falciparum, W2) [nM]	IC50 (Plasmodium falciparum [2]; Plasmodium falciparum, D6) [nM]	IC90 (Plasmodium falciparum [2]; Plasmodium falciparum, D6) [nM]	IC50 (Plasmodium falciparum [3]; [4]) [nM]	IC90 (Plasmodium falciparum [3]; [4]) [nM]	further results
CC(=O)O[C@H]1C[C@H]2[C@@H]([C@H](OC(C)=O)C[C@@H]3CC4(CC[C@@]32C)OOC2(CCC(C)CC2)OO4)[C@@H]2CC[C@H]([C@H](C)CCC(=O)Nc3ccccc3)[C@@]12C (stereo in doubt; 20)	7.86	5.48	8.07	6.24	11	–	–	–	–	–	–	IC90 (Plasmodium falciparum [1]): 10.1 nM; GI50 (NCI): 160 nM; LC50 (concentration killing 50% of cells) (LOX IMVI): 1890 nM; GI50 (LOX IMVI; Homo sapiens, LOX IMVI, 48 h): 161 nM; TGI (LOX IMVI; Homo sapiens, LOX IMVI, 48 h): 417 nM
CC(=O)O[C@H]1C[C@H]2[C@@H](CC[C@@H]3CC4(CC[C@@]32C)OOC2(CCCCC2)OO4)[C@@H]2CC[C@H]([C@H](C)CCC(N)=O)[C@@]12C	–	–	–	–	–	19.1	35.6	32.7	50.4	40.9	76.7	–
CCCNC(=O)CC[C@@H](C)[C@H]1CC[C@H]2[C@@H]3CC[C@@H]4CC5(CC[C@]4(C)[C@H]3C[C@H](OC(C)=O)[C@]12C)OOC1(CCC(C)CC1)OO5 (stereo in doubt; 14)	10.1	9.81	–	12.3	23.4	–	30.5	–	20.2	–	–	–
CC(=O)O[C@H]1C[C@H]2[C@@H](CC[C@@H]3CC4(CC[C@@]32C)OOC2(CCCCC2)OO4)[C@@H]2CC[C@H]([C@H](C)CCC(=O)NN)[C@@]12C	–	–	–	–	–	347	–	347	–	347	–	–
CC(=O)O[C@H]1C[C@H]2[C@@H](CC[C@@H]3CC4(CC[C@@]32C)OOC2(CCCCC2)OO4)[C@@H]2CC[C@H]([C@H](C)CCC(=O)N3CCCCC3)[C@@]12C	–	–	–	–	–	55.5	78.6	106	131	84.7	125	–
CC(=O)O[C@H]1C[C@H]2[C@@H](CC[C@@H]3CC4(CC[C@@]32C)OOC2(CCC(C)CC2)OO4)[C@@H]2CC[C@H]([C@H](C)CCC(=O)Nc3ccccc3)[C@@]12C (stereo in doubt; 19)	50.8	50	77.5	66.8	109	–	–	–	–	–	–	IC90 (Plasmodium falciparum [1]): 76.9 nM; GI50 (NCI; Homo sapiens, NCI): < 5 nM; GI50 (HOP-92): < 5 nM; LC50 (concentration killing 50% of cells) (HOP-92): 15200 nM; TGI (HOP-92): 130 nM
CC(=O)O[C@H]1C[C@H]2[C@@H](CC[C@@H]3CC4(CC[C@@]32C)OOC2(CCCCC2)OO4)[C@@H]2CC[C@H]([C@H](C)CCC(=O)O)[C@@]12C	–	–	–	–	–	93.9	178	107	310	–	–	–
COC(=O)CC[C@@H](C)[C@H]1CC[C@H]2[C@@H]3CC[C@@H]4CC5(CC[C@]4(C)[C@H]3C[C@H](OC(C)=O)[C@]12C)OOC1(CCC(C)CC1)OO5 (stereo in doubt; 3c)	38.3	38	62.9	50.8	77.3	–	–	–	–	–	–	IC90 (Plasmodium falciparum [1]): 80.3 nM
CCN(CC)CCCC(C)Nc1ccnc2cc(Cl)ccc12 (configuration not stated) [CHLOROQUINE]	–	–	–	–	–	–	349	–	13.7	–	–	–
CC(=O)O[C@H]1C[C@H]2[C@@H](CC[C@@H]3CC4(CC[C@@]32C)OOC2(CCC(C)CC2)OO4)[C@@H]2CC[C@H]([C@H](C)CCC(N)=O)[C@@]12C (stereo in doubt; 13)	19.4	22.9	31.4	28	53.5	–	–	–	–	–	–	IC90 (Plasmodium falciparum [1]): 118 nM
COC(=O)CC[C@@H](C)[C@H]1CC[C@H]2[C@@H]3CC[C@@H]4CC5(CC[C@]4(C)[C@H]3C[C@H](OC(C)=O)[C@]12C)OOC1(CCC(C)CC1)OO5 (stereo in doubt; 3b)	–	–	26	–	–	34.2	49.3	39.2	–	42.4	74.9	–
CC(=O)O[C@H]1C[C@H]2[C@@H](CC[C@@H]3CC4(CC[C@@]32C)OOC2(CCC(C)CC2)OO4)[C@@H]2CC[C@H]([C@H](C)CCC(=O)Nc3ccccc3)[C@@]12C (stereo in doubt; 18)	23.1	23.3	33.7	32.9	42.7	–	38.9	–	–	–	–	–
C[C@@H]1CC[C@H]2[C@@H](C)C(=O)O[C@@H]3O[C@@]4(C)CC[C@@H]1[C@]32OO4 [ARTEMISININ]	–	–	–	–	–	6.7	11.5	9	12.8	13	17.4	–
CCCN(CCC)C(=O)CC[C@@H](C)[C@H]1CC[C@H]2[C@@H]3CC[C@@H]4CC5(CC[C@]4(C)[C@H]3C[C@H](OC(C)=O)[C@]12C)OOC1(CCCCC1)OO5	–	–	–	–	–	150	169	179	197	169	203	–
COC(=O)CC[C@@H](C)[C@H]1CC[C@H]2[C@@H]3CC[C@@H]4CC5(CC[C@]4(C)[C@H]3C[C@H](OC(C)=O)[C@]12C)OOC1(CCCCC1)OO5	–	–	–	–	–	112	170	201	258	–	–	–
CC(=O)O[C@H]1C[C@H]2[C@@H]([C@H](OC(C)=O)C[C@@H]3CC4(CC[C@@]32C)OOC2(CCCCC2)OO4)[C@@H]2CC[C@H]([C@H](C)CCC(=O)Nc3ccccc3)[C@@]12C	–	–	–	–	–	11.2	25.9	6.7	11.7	10.3	27.8	–
CC(=O)O[C@H]1C[C@H]2[C@@H](CC[C@@H]3CC4(CC[C@@]32C)OOC2(CCC(C)CC2)OO4)[C@@H]2CC[C@H]([C@H](C)CCC(=O)O)[C@@]12C (stereo in doubt; 4b)	12.1	–	–	–	–	–	84.8	11.6	17.1	19.9	47	–
CC(=O)O[C@H]1C[C@H]2[C@@H](CC[C@@H]3CC4(CC[C@@]32C)OOC2(CCCCC2)OO4)[C@@H]2CC[C@H]([C@H](C)CCC(=O)Nc3ccccc3)[C@@]12C	–	–	–	–	–	81.6	195	133	195	–	–	–
O[C@@H](c1cc(C(F)(F)F)nc2c(C(F)(F)F)cccc12)[C@H]1CCCCN1 [MEFLOQUINE]	–	–	–	–	–	–	8.41	–	21.6	–	65.7	–
CC(=O)O[C@H]1C[C@H]2[C@@H](CC[C@@H]3CC4(CC[C@@]32C)OOC2(CCC(C)CC2)OO4)[C@@H]2CC[C@H]([C@H](C)CCC(=O)O)[C@@]12C (stereo in doubt; 4c)	42.2	19.2	31.7	31.8	93	–	–	–	–	–	–	IC90 (Plasmodium falciparum [1]): 89.7 nM
